Literature values as cited in PMC9516332 (Frontiers in Oncology, 2022).
Read-outs that look alike come from different tables or passages of the source.

Key:
Conditions in all cases: cited from earlier work
[1] = biological target: panel of 255 wild-type kinases (Homo sapiens, UniProt Q13131)
[2] = biological target: panel of 255 wild-type kinases (Homo sapiens, UniProt Q14289)
[3] = biological target: panel of 255 wild-type kinases (Homo sapiens, UniProt Q15375)
[4] = biological target: panel of 255 wild-type kinases (Homo sapiens, UniProt Q13554)
[5] = biological target: panel of 255 wild-type kinases (Homo sapiens, UniProt Q16539)
[6] = biological target: panel of 255 wild-type kinases (Homo sapiens, UniProt P11309)
[7] = biological target: panel of 255 wild-type kinases (Homo sapiens, UniProt Q06187)
[8] = biological target: panel of 255 wild-type kinases (Homo sapiens, UniProt P49761)
[9] = biological target: panel of 255 wild-type kinases (Homo sapiens, UniProt Q9UPE1)
[10] = biological target: T1, panel of 255 wild-type kinases (Homo sapiens, UniProt Q08881)
T1 sequence (Q08881 1-620): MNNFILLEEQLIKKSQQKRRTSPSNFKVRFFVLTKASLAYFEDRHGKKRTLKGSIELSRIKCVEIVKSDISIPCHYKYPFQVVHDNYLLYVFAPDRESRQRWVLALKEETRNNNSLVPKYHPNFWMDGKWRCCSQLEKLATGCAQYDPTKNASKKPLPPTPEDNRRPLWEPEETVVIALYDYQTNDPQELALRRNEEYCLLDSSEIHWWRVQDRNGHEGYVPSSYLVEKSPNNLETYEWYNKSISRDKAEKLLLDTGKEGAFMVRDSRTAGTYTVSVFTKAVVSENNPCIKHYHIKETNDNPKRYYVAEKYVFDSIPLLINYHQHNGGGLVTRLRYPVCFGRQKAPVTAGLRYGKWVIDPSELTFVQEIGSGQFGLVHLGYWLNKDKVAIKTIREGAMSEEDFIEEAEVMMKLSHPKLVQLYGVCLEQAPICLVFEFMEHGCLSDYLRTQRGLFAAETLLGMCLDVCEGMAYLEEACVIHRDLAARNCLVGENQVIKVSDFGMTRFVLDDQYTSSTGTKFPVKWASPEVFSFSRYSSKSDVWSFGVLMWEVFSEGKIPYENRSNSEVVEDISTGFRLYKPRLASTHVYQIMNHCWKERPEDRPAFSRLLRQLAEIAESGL

[11] = biological target: T2, panel of 255 wild-type kinases (Homo sapiens, UniProt Q13237)
T2 sequence (Q13237 1-762): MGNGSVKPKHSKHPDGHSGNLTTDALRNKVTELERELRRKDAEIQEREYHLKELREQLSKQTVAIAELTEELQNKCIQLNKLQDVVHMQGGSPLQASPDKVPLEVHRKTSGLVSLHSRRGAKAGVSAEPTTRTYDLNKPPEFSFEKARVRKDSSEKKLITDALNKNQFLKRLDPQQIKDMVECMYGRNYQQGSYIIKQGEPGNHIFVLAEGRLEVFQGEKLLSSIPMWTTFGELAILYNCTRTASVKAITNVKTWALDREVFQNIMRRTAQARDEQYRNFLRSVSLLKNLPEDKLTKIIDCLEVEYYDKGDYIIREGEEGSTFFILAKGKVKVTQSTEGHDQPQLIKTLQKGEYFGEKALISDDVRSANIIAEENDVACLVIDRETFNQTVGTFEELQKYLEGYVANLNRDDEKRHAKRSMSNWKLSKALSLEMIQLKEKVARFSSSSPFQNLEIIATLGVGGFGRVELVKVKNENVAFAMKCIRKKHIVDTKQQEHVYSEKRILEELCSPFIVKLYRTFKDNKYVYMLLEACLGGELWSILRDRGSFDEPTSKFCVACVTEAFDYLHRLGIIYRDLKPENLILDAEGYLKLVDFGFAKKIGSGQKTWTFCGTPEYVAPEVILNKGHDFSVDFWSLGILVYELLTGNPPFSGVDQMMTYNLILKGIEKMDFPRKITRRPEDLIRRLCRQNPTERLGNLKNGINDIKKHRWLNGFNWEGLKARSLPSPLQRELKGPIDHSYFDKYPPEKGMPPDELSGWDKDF

[12] = biological target: panel of 255 wild-type kinases (Homo sapiens, UniProt P35968)
[13] = biological target: panel of 255 wild-type kinases (Homo sapiens, UniProt Q15418)
[14] = AMPKα1/β1/γ1 kinase assay, 1 µmol/L single concentration, ref DOI: 10.1371/journal.pone.0092146
[15] = p38α, 1 µmol/L single concentration, ref DOI: 10.1371/journal.pone.0092146
[16] = kinase PIM1, 1 µmol/L single concentration, ref DOI: 10.1371/journal.pone.0092146
[17] = kinase CLK3, 1 µmol/L single concentration, ref DOI: 10.1371/journal.pone.0092146
[18] = kinase ITK, 1 µmol/L single concentration, ref DOI: 10.1371/journal.pone.0092146
[19] = CGK2 kinase assay, 1 µmol/L single concentration, ref DOI: 10.1371/journal.pone.0092146
[20] = kinase RSK1, 1 µmol/L single concentration, ref DOI: 10.1371/journal.pone.0092146
[21] = kinase PYK2, 1 µmol/L single concentration, ref DOI: 10.1158/1535-7163.MCT-18-0877
[22] = kinase EPHA7, 1 µmol/L single concentration, ref DOI: 10.1158/1535-7163.MCT-18-0877
[23] = p38α, 1 µmol/L single concentration, ref DOI: 10.1158/1535-7163.MCT-18-0877
[24] = MSSK1, 1 µmol/L single concentration, ref DOI: 10.1158/1535-7163.MCT-18-0877
[25] = kinase ITK, 1 µmol/L single concentration, ref DOI: 10.1158/1535-7163.MCT-18-0877
[26] = kinase RSK1, 1 µmol/L single concentration, ref DOI: 10.1158/1535-7163.MCT-18-0877

SMILES | %-inhibition AMPKα1/β1/γ1 [1, 14] | %-inhibition, p38α [5, 15] | %-inhibition at 1 µmol/L, PIM1 [6, 16] | %-inhibition at 1 µmol/L, CLK3 [8, 17] | %-inhibition at 1 µmol/L, ITK [10, 18] | %-inhibition CGK2 [11, 19] | %-inhibition at 1 µmol/L, RSK1 [13, 20] | %-inhibition at 1 µmol/L, PYK2 [2, 21] | %-inhibition at 1 µmol/L, EPHA7 [3, 22] | %-inhibition, p38α [5, 23] | %-inhibition, MSSK1 [9, 24] | %-inhibition at 1 µmol/L, ITK [10, 25] | %-inhibition at 1 µmol/L, RSK1 [13, 26] | other results
CCCS(=O)(=O)Nc1ccc(F)c(C(=O)c2c[nH]c3ncc(-c4ccc(Cl)cc4)cc23)c1F [vemurafenib] | -1.59% | 10% | -3.41% | -14% | 3% | -2.26% | -1.32% |  |  |  |  |  |  | %-inhibition at 1 µmol/L, PYK2 ([2]; kinase PYK2, 1 µmol/L single concentration, ref DOI: 10.1371/journal.pone.0092146): 0.921%; %-inhibition at 1 µmol/L, EPHA7 ([3]; kinase EPHA7, 1 µmol/L single concentration, ref DOI: 10.1371/journal.pone.0092146): -0.639%; %-inhibition CaMK2β ([4]; CaMK2β kinase assay, 1 µmol/L single concentration, ref DOI: 10.1371/journal.pone.0092146): -6.64%; %-inhibition BTK ([7]; BTK kinase assay, 1 µmol/L single concentration, ref DOI: 10.1371/journal.pone.0092146): 2%; %-inhibition, MSSK1 ([9]; MSSK1, 1 µmol/L single concentration, ref DOI: 10.1371/journal.pone.0092146): -6.65%; %-inhibition at 1 µmol/L, KDR ([12]; kinase KDR, 1 µmol/L single concentration, ref DOI: 10.1371/journal.pone.0092146): 13%
COc1cc(N2CCC(N3CCN(C)CC3)CC2)ccc1Nc1ncc(Cl)c(Nc2ccccc2P(C)(C)=O)n1 [brigatinib] |  |  |  |  |  |  |  |  |  |  |  |  |  | %-inhibition AMPKα1/β1/γ1 [1]: 80%; %-inhibition at 1 µmol/L, PYK2 [2]: 104%; %-inhibition at 1 µmol/L, EPHA7 [3]: 21%; %-inhibition CaMK2β [4]: 64%; %-inhibition, p38α [5]: -0.837%; %-inhibition at 1 µmol/L, PIM1 [6]: 3%; %-inhibition BTK [7]: 54%; %-inhibition at 1 µmol/L, CLK3 [8]: 33%; %-inhibition, MSSK1 [9]: 5.3%; %-inhibition at 1 µmol/L, ITK [10]: 95%; %-inhibition CGK2 [11]: 37%; %-inhibition at 1 µmol/L, KDR [12]: 86%; %-inhibition at 1 µmol/L, RSK1 [13]: 98%
CO[C@@H]1[C@H](N(C)C(=O)c2ccccc2)C[C@H]2O[C@]1(C)n1c3ccccc3c3c4c(c5c6ccccc6n2c5c31)C(=O)NC4 [midostaurin] |  |  |  |  |  |  |  | 72% | 19% | -1.38% | -9% | 73% | 98% | %-inhibition AMPKα1/β1/γ1 ([1]; AMPKα1/β1/γ1 kinase assay, 1 µmol/L single concentration, ref DOI: 10.1158/1535-7163.MCT-18-0877): 86%; %-inhibition at 1 µmol/L, PIM1 ([6]; kinase PIM1, 1 µmol/L single concentration, ref DOI: 10.1158/1535-7163.MCT-18-0877): 52%; %-inhibition BTK ([7]; BTK kinase assay, 1 µmol/L single concentration, ref DOI: 10.1158/1535-7163.MCT-18-0877): 59%
C=CC(=O)N1CCC[C@@H](n2nc(-c3ccc(Oc4ccccc4)cc3)c3c(N)ncnc32)C1 [ibrutinib] |  |  |  |  |  |  |  | 3.37% | 7% | -2.71% | 1.54% | 93% | 5.47% | %-inhibition CaMK2β ([4]; CaMK2β kinase assay, 1 µmol/L single concentration, ref DOI: 10.1158/1535-7163.MCT-18-0877): -2.56%; %-inhibition CGK2 ([11]; CGK2 kinase assay, 1 µmol/L single concentration, ref DOI: 10.1158/1535-7163.MCT-18-0877): -1.77%; %-inhibition at 1 µmol/L, KDR ([12]; kinase KDR, 1 µmol/L single concentration, ref DOI: 10.1158/1535-7163.MCT-18-0877): 84%
C[C@@H](Oc1cc(-c2cnn(C3CCNCC3)c2)cnc1N)c1c(Cl)ccc(F)c1Cl [crizotinib] | 16% | -2.27% | -7% | -5% | 63% | -0.915% | -5% |  |  |  |  |  |  | 
